Data on two molecules can be found in patent US6713251B2, “Method for detection of drug-induced mutations in the reverse transcriptase gene” (Innogenetics N.V., priority 1996, dated 2004).

One assay concerns CD4 cells. Kind of assay: Follow-up of CD4 cell count in treated HIV-1 infected patients. Format: in vivo, human. The method, then:
(§1) Plasma samples were taken from HIV type-1 infected patients and stored at −20° C. until use. Patients were treated with AZT, ddI, ddC, D4T, 3TC, or several combinations of these prodrugs. The European serum samples tested were randomly selected. For the US serum collection, only the first sample from a follow-up series was taken. Some of these US patients were treated, others were not treated.
We selected follow-up samples from three patients and analyzed the viral genotype on the 48 LiPA probes. FIG. 3 illustrates the applicability of genotypic resistance measurement in conjunction with the analysis of viral load and CD4 cell count.

For the next assay, the system named is HIV-1. Kind of assay: Follow-up of plasma HIV RNA copy number (viral load, HIV Monitor test) in treated patients. Format: in vivo, human. The protocol: as §1
For cDNA synthesis and PCR amplification, the RNA pellet was dissolved in 15 μl random primers (20 ng/μl, pdN6, Pharmacia), prepared in DEPC-treated or HPLC grade water. After denaturation at 70° C. for 10 minutes, 5 μl cDNA mix was added, composed of 4 μl 5×AMV-RT buffer (250 mM Tris.HCl pH 8.5, 100 mM KCl, 30 mM MgCl2, 25 mM DTT), 0.4 μL 25 mM dXTPs, 0.2 μl or 25U Ribonuclease Inhibitor (HPRI, Amersham), and 0.3 μl or 8U AMV-RT (Stratagene). CDNA synthesis occurred during the 90 minutes incubation at 42° C. The HIV RT gene was then amplified using the following reaction mixture. […] Nested round PCR products were analysed on agarose gel and only clearly visible amplification products were used in the LiPA procedure. Quantification of viral RNA was obtained with the HIV Monitor™test (Roche, Brussels, Belgium).
We selected follow-up samples from three patients and analyzed the viral genotype on the 48 LiPA probes. […]

Turning to `Nc1ccn([C@@H]2CS[C@H](CO)O2)c(=O)n1` [3TC, (−)-β-L-2′,3′-dideoxy-3′-thioCytidine], in the assay with CD4 cells (Patient 94013, 3TC monotherapy from week 2 onwards, highest level at week 10), the CD4 count increase is listed as approximately 2.5 fold. For the same molecule, the Viral load decrease in the assay on HIV-1 (Patient 94013, 3TC monotherapy from week 2 onwards) came to 3 log units.

On to `Cc1cn([C@H]2C[C@H](N=[N+]=[N-])[C@@H](CO)O2)c(=O)[nH]c1=O` [AZT, 3′-azido-2′,3′-dideoxyThymidine], for which the “Change in CD4 count” value with CD4 cells (Patient 92021, AZT monotherapy from week 10, peak at week 21) is given as “initially increased”. Also, the “Effect on viral load” value with HIV-1 (Patient 92021, ten weeks of AZT treatment (from week 10), values of week 16 and 19) was “did not result in a drop in viral load”.
